The structures appear in SMILES notation.

For test [1], the system named is ICR male mice. Kind of test: Anti-reserpine action (antagonistic action against hypothermia). The test is classed as in vivo. As to conditions: Mus musculus, 2 h; SC; mice given reserpine 5 mg/kg s.c. 3 or 3.5 hours before; estimated from regression line; read-out: Concentration of test compound necessary for raising body temperature by 1°C on the average for 120 minutes. How it is done:
Anti-reserpine action (Antagonistic action against hypothermia)
ICR male mice weighing 35 - 40 g were subcutaneously administered with reserpine at the dose of 5 mg/kg. About 2 hours later, each of the mice was held by a mouse-holder, and a body temperature sensor was intrarectally inserted. Thereafter, the body temperature was automatically measured every 10 minutes. The test compound dissolved in saline was subcutaneously administered 3 or 3.5 hours after administration of reserpine. After the administration of the test compound, the body temperature was measured every 10 minutes over the period of 120 minutes. The area below the body temperature line during the period was calculated, from which the regression line was estimated based upon least square method, and estimated was the amount of the test compound necessary for raising the body temperature by 1°C on the average for 120 minutes from that just before the administration of the test compound (Table 1).

In test [2] the test system is ICR male mice. The experiment in a line: Anti-chlorpromazine action (locomotor stimulant action). The test is classed as in vivo. The settings on record: Mus musculus, 2 h; SC; mice given chlorpromazine HCl 5 mg/kg s.c. one hour before; estimated from regression line; read-out: Concentration of test compound necessary for inducing 3000 count of automatism quantity in 2 hours. As for the experimental part: Anti-chlorpromazine action (Locomotor stimulant action)
ICR male mice weighing 35 - 40 g (four animals per group) were subcutaneously administered with chlorpromazine HCl at the dose of 5 mg/kg and immediately set in the automatic locomotor-measuring apparatus (AUTOMEX). One hour later, the test compound dissolved in saline was subcutaneously administered, and the locomotor activity was measured every 15 minutes for 120 minutes. The total locomotor activity during the period of 120 minutes was calculated and the regression line was estimated based on the method of least squares, from which the amount of the test compound necessary for inducing 3000 locomotor-count was estimated (Table 2).

Regarding `CC(C)C[C@H](NC(=O)[C@H]1NC(=O)C[C@H]1C)C(=O)N1CCC[C@H]1C(N)=O` [Compound 1A, N-(cis-3-Methylpyroglutamyl)-L-leucyl-L-prolinamide], the ED (1 C rise of body temperature) with ICR male mice [1] is 0.18 mg/kg. Moreover, in the test with ICR male mice [2], the ED (3000 locomotor counts) was 2.63 mg/kg.

As for `CSCC[C@H](NC(=O)[C@H]1NC(=O)C[C@H]1C)C(=O)N1CCC[C@H]1C(N)=O` [Compound 2A, N-(cis-3-Methylpyroglutamyl)-L-methionyl-L-prolinamide], the ED (1 C rise of body temperature) in the test on ICR male mice [1] is 0.48 mg/kg. Also, in the test with ICR male mice [2], the ED (3000 locomotor counts) is 1.64 mg/kg. Regarding `CCC[C@H](NC(=O)[C@H]1NC(=O)C[C@H]1C)C(=O)N1CCC[C@H]1C(N)=O` [Compound 3A, N-(cis-3-Methylpyroglutamyl)-L-norvalyl-L-prolinamide], the ED (1 C rise of body temperature) with ICR male mice [1] was 0.91 mg/kg. Regarding `CCCC[C@H](NC(=O)[C@H]1NC(=O)C[C@H]1C)C(=O)N1CCC[C@H]1C(N)=O` [Compound 5A, N-(cis-3-Methylpyroglutamyl)-L-norleucyl-L-prolinamide], the ED (1 C rise of body temperature) with ICR male mice [1] is 0.33 mg/kg. Also, in the test on ICR male mice [2], the ED (3000 locomotor counts) was 16.3 mg/kg. Consider `NC(=O)[C@@H]1CCCN1C(=O)[C@H](Cc1c[nH]cn1)NC(=O)[C@@H]1CCC(=O)N1` [TRH, L-pyroglutamyl-L-histidyl-L-prolinamide, reference compound], for which the ED (3000 locomotor counts) with ICR male mice [2] is 6.82 mg/kg.

The values are drawn from EP0473993B1, “Novel peptide derivatives and their pharmaceutical use” (Japan Tobacco Inc., priority 1990, dated 1992).
